Several values for one entry are separate records, joined by “and”; a condition that tells them apart may be missing. Equal values may be shown once. Inconclusive results and toxic doses are left out. Cut-off read from the data, not from the text of the source: active = T/C of 150% or more; inactive = T/C below 125%.
Tested on: L1210 leukemia ip in BDF1 mice, survival T/C
Test: NCI In Vivo Anticancer Drug Screen. Data for tumor model L1210 Leukemia (intraperitoneal) in B6D2F1 (BDF1) mice
Conditions: endpoint: mean survival time, higher = longer survival
Outline: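 Value reflects the ratio of survival in compound-treated mice to survival in vehicle-treated controls, with both groups carrying the same transplanted tumor.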

[1] = dose: 100.0 mg/kg/injection, schedule: Q04DX003 (ip), vehicle: saline with Tween-80
[2] = dose: 100.0 mg/kg/injection, schedule: Q01DX001 (ip), vehicle: saline
[3] = dose: 100.0 mg/kg/injection, schedule: Q01DX009 (ip), vehicle: saline
[4] = dose: 100.0 mg/kg/injection, schedule: Q04DX003 (ip), vehicle: saline
[5] = dose: 200.0 mg/kg/injection, schedule: Q01DX009 (ip), vehicle: saline
[6] = dose: 200.0 mg/kg/injection, schedule: Q04DX003 (ip), vehicle: saline
[7] = dose: 400.0 mg/kg/injection, schedule: Q01DX009 (ip), vehicle: saline
[8] = dose: 400.0 mg/kg/injection, schedule: Q04DX003 (ip), vehicle: saline
[9] = dose: 100.0 mg/kg/injection, schedule: Q01DX001 (ip), vehicle: Klucel (hydroxypropylcellulose) (HPC)
[10] = dose: 200.0 mg/kg/injection, schedule: Q01DX001 (ip), vehicle: Klucel (hydroxypropylcellulose) (HPC)
[11] = dose: 400.0 mg/kg/injection, schedule: Q01DX001 (ip), vehicle: Klucel (hydroxypropylcellulose) (HPC)
[12] = dose: 100.0 mg/kg/injection, schedule: Q04DX003 (ip), vehicle: Klucel (hydroxypropylcellulose) (HPC)
[13] = dose: 200.0 mg/kg/injection, schedule: Q04DX003 (ip), vehicle: Klucel (hydroxypropylcellulose) (HPC)
[14] = dose: 400.0 mg/kg/injection, schedule: Q04DX003 (ip), vehicle: Klucel (hydroxypropylcellulose) (HPC)

Measured: T/C

O=C1CC(c2ccc(O)cc2)CC(=O)C1C(=O)Nc1ccccc1 (stereo unspecified)
inactive: dose: 100.0 mg/kg/injection, schedule: Q01DX001 (ip), vehicle: other 101 % of control | dose: 200.0 mg/kg/injection, schedule: Q01DX001 (ip), vehicle: other 100 % of control | dose: 400.0 mg/kg/injection, schedule: Q01DX001 (ip), vehicle: other 97 % of control

FC(F)(F)c1ccc2c(c1)N(CCCN(CCCl)CCCl)c1ccccc1S2
inactive: dose: 3.12 mg/kg/injection, schedule: Q01DX001 (ip), vehicle: saline with Tween-80 102 % of control | dose: 3.12 mg/kg/injection, schedule: Q01DX009 (ip), vehicle: saline with Tween-80 102 % of control | dose: 6.25 mg/kg/injection, schedule: Q01DX001 (ip), vehicle: saline with Tween-80 102 % of control | dose: 6.25 mg/kg/injection, schedule: Q01DX009 (ip), vehicle: saline with Tween-80 98 % of control | dose: 12.5 mg/kg/injection, schedule: Q01DX001 (ip), vehicle: saline with Tween-80 100 % of control | dose: 12.5 mg/kg/injection, schedule: Q01DX009 (ip), vehicle: saline with Tween-80 100 % of control | dose: 12.5 mg/kg/injection, schedule: Q04DX003 (ip), vehicle: saline with Tween-80 102 % of control | dose: 25.0 mg/kg/injection, schedule: Q04DX003 (ip), vehicle: saline with Tween-80 113 % of control | dose: 50.0 mg/kg/injection, schedule: Q04DX003 (ip), vehicle: saline with Tween-80 98 % of control | [1] 113 % of control

COP(=O)(CCBr)OC
inactive: [2] 103 % of control | [3] 101 % of control | [4] 104 % of control | dose: 200.0 mg/kg/injection, schedule: Q01DX001 (ip), vehicle: saline 102 % of control | [5] 103 % of control | [6] 104 % of control | dose: 400.0 mg/kg/injection, schedule: Q01DX001 (ip), vehicle: saline 108 % of control | [7] 98 % of control | [8] 106 % of control

CCCCCCCCCCCCOc1ccc(Sc2ccc([N+](=O)[O-])cc2)cc1
inactive: [9] 95 % of control | [10] 87 % of control | [11] 90 % of control

CN1CCN(C2CCCCc3ccccc32)CC1 (stereo unspecified)
inactive: [1] 95 % of control

O=C(Nc1cccc(C2=NCCN2)c1)c1cccc(C(=O)Nc2cccc(C3=NCCN3)c2)c1
inactive: dose: 15.0 mg/kg/injection, schedule: Q01DX Z (ip), vehicle: carboxymethylcellulose (CMC) 103 % of control | dose: 31.0 mg/kg/injection, schedule: Q01DX Z (ip), vehicle: carboxymethylcellulose (CMC) 92 % of control | dose: 62.0 mg/kg/injection, schedule: Q01DX Z (ip), vehicle: carboxymethylcellulose (CMC) 92 % of control

CC/C=C(/C)C(C#N)(C(=O)O)C(C)C (stereo unspecified)
inactive: dose: 75.0 mg/kg/injection, schedule: Q01DX001 (ip), vehicle: saline 98 % of control | dose: 150.0 mg/kg/injection, schedule: Q01DX001 (ip), vehicle: saline 104 % of control | dose: 300.0 mg/kg/injection, schedule: Q01DX001 (ip), vehicle: saline 94 % of control

CCCCCCCCc1ccc(C(=O)O)cc1
inactive: [12] 105 % of control | [13] 101 % of control | [14] 91 % of control

COc1ccc(N)cc1OC
inactive: [4] 110 % of control | [6] 105 % of control | [8] 100 % of control

N#Cc1cccnc1Cl
inactive: [9] 100 % of control | [12] 96 % of control | [10] 94 % of control | [13] 87 % of control | [11] 100 % of control | [14] 99 % of control

NC(=O)c1ccc[n+](Cc2c(Cl)cccc2Cl)c1
inactive: dose: 1.56 mg/kg/injection, schedule: Q01DX009 (ip), vehicle: saline 111 % of control | dose: 3.12 mg/kg/injection, schedule: Q01DX009 (ip), vehicle: saline 122 % of control | dose: 6.25 mg/kg/injection, schedule: Q01DX009 (ip), vehicle: saline 122 % of control

COc1cccc2c1[nH]c1cc3ccncc3cc12
inactive: dose: 25.0 mg/kg/injection, schedule: Q01DX001 (ip), vehicle: saline 107 % of control | dose: 50.0 mg/kg/injection, schedule: Q01DX001 (ip), vehicle: saline 112 % of control | [2] 98 % of control and 102 % of control | [12] 95 % of control | [13] 95 % of control

CCOC(=O)Cn1c2ccccc2c2cc3c(C)nccc3c(C)c21
inactive: dose: 4.69 mg/kg/injection, schedule: Q01DX009 (ip), vehicle: saline with Tween-80 93 % of control | dose: 9.37 mg/kg/injection, schedule: Q01DX009 (ip), vehicle: saline with Tween-80 96 % of control | dose: 9.37 mg/kg/injection, schedule: Q04DX003 (ip), vehicle: saline with Tween-80 96 % of control | dose: 18.75 mg/kg/injection, schedule: Q01DX009 (ip), vehicle: saline with Tween-80 95 % of control | dose: 18.75 mg/kg/injection, schedule: Q04DX003 (ip), vehicle: saline with Tween-80 105 % of control | dose: 37.5 mg/kg/injection, schedule: Q01DX009 (ip), vehicle: saline with Tween-80 95 % of control | dose: 37.5 mg/kg/injection, schedule: Q04DX003 (ip), vehicle: saline with Tween-80 96 % of control | dose: 75.0 mg/kg/injection, schedule: Q01DX009 (ip), vehicle: saline with Tween-80 103 % of control | dose: 75.0 mg/kg/injection, schedule: Q04DX003 (ip), vehicle: saline with Tween-80 105 % of control | dose: 150.0 mg/kg/injection, schedule: Q01DX009 (ip), vehicle: saline with Tween-80 97 % of control | dose: 150.0 mg/kg/injection, schedule: Q04DX003 (ip), vehicle: saline with Tween-80 113 % of control

CC1=CC(=O)CC(c2ccc(N(C)C)cc2)C1 (stereo unspecified)
inactive: dose: 25.6 mg/kg/injection, schedule: Q04DX002 (ip), vehicle: saline with Tween-80 101 % of control | dose: 64.0 mg/kg/injection, schedule: Q04DX002 (ip), vehicle: saline with Tween-80 97 % of control

CCC1(CC)C(=O)NC(=NCCCC(N)C(=O)O)NC1=O (stereo unspecified)
inactive: dose: 75.0 mg/kg/injection, schedule: Q01DX001 (ip), vehicle: carboxymethylcellulose (CMC) 106 % of control | dose: 150.0 mg/kg/injection, schedule: Q01DX001 (ip), vehicle: carboxymethylcellulose (CMC) 109 % of control

O=C(CC1(O)C(=O)Nc2ccccc21)CC1(O)C(=O)Nc2ccccc21 (stereo unspecified)
inactive: dose: 100.0 mg/kg/injection, schedule: Q01DX007 (ip), vehicle: Klucel (hydroxypropylcellulose) (HPC) 110 % of control | [12] 100 % of control | dose: 200.0 mg/kg/injection, schedule: Q01DX007 (ip), vehicle: Klucel (hydroxypropylcellulose) (HPC) 118 % of control | [13] 97 % of control | dose: 400.0 mg/kg/injection, schedule: Q01DX007 (ip), vehicle: Klucel (hydroxypropylcellulose) (HPC) 103 % of control | [14] 92 % of control

CC(C)CC(CC(C)C)NCCO
inactive: dose: 75.0 mg/kg/injection, schedule: Q01DX001 (ip), vehicle: acid diluted with saline 103 % of control

NC(=O)c1nnn(Cc2ccccc2)c1C(N)=O
inactive: dose: 100.0 mg/kg/injection, schedule: Q04DX002 (ip), vehicle: Klucel (hydroxypropylcellulose) (HPC) 104 % of control | dose: 200.0 mg/kg/injection, schedule: Q04DX002 (ip), vehicle: Klucel (hydroxypropylcellulose) (HPC) 96 % of control | dose: 400.0 mg/kg/injection, schedule: Q04DX002 (ip), vehicle: Klucel (hydroxypropylcellulose) (HPC) 101 % of control

CSc1nc(N)c(N=Nc2ccc(S(=O)(=O)Nc3nccc(C)n3)cc2)c(=O)[nH]1
inactive: dose: 100.0 mg/kg/injection, schedule: Q01DX001 (ip), vehicle: carboxymethylcellulose (CMC) 86 % of control | dose: 200.0 mg/kg/injection, schedule: Q01DX001 (ip), vehicle: carboxymethylcellulose (CMC) 97 % of control | dose: 400.0 mg/kg/injection, schedule: Q01DX001 (ip), vehicle: carboxymethylcellulose (CMC) 97 % of control

CCOC(=O)CCN1CCCCCC1
inactive: [3] 104 % of control | [4] 92 % of control | [5] 104 % of control | [6] 98 % of control | [7] 101 % of control | [8] 102 % of control

[N-]=[N+]=C1C(Cl)=C(Cl)C(Cl)=C1Cl
inactive: dose: 75.0 mg/kg/injection, schedule: Q01DX001 (ip), vehicle: other 96 % of control | dose: 150.0 mg/kg/injection, schedule: Q01DX001 (ip), vehicle: other 102 % of control

CC(C)C1(C(=O)N2CCCCC2=O)SCCCS1
inactive: [1] 94 % of control | dose: 200.0 mg/kg/injection, schedule: Q04DX003 (ip), vehicle: saline with Tween-80 90 % of control | dose: 400.0 mg/kg/injection, schedule: Q04DX003 (ip), vehicle: saline with Tween-80 92 % of control

Reference: PubChem BioAssay AID248 (DTP/NCI, 2004)
